Values after ≈ are worked out from the molar mass of the structure shown. Where two headings read alike, the source gives them in different places.
Key:
Test in all cases: MIC, agar dilution method, pH 8.0
Format in all cases: cell-based
[1] = tested on: Eschericia coli KY4271 ATCC26; conditions: Escherichia coli
Description: (§1) Measurement was carried out according to the agar dilution method, using a medium of pH 8.0, or the Japanese Antibiotic Medicament Standard, using a medium of pH 7.2 Units are in mcg/ml.
E.C.: Eschericia coli KY4271 ATCC26

[2] = tested on: Staphylococcus aureus KY4279 ATCC6538P
Description: as §1
S.A.: Staphylococcus aureus KY4279 ATCC6538P

[3] = tested on: Klebsiella pneumoniae KY4275 ATCC10031; conditions: ATCC10031; pH 8.0; Klebsiella pneumoniae KY4275; read-out: Minimum inhibition concentration (MIC), KP
Description: as §1
K.P.: Klebsiella pneumoniae KY4275 ATCC10031.

[4] = tested on: Salmonella typhosa KY4278 ATCC9992; conditions: Salmonella enterica, pH 8, read-out: Minimum inhibition concentration (MIC), ST
Description: as §1
S.T.: Salmonella typhosa KY4278 ATCC9992

Bacillus subtilis KY4273 = tested on: Bacillus subtilis KY4273
Description: as §1
B.S.: Bacillus subtilis KY4273

[5] = tested on: Proteus vulgaris KY4277 ATCC6897
Description: as §1

[6] = tested on: Shigella sonnei KY4281 ATCC9290; conditions: ATCC9290; pH 8.0; Shigella sonnei KY4281; read-out: Minimum inhibition concentration (MIC), SS
Description: as §1

[7] = ATCC26, pH 8.0, E. coli KY4271, read-out: Minimum inhibition concentration (MIC), EC
[8] = pH 8.0, Staphylococcus aureus KY4279, read-out: Minimum inhibition concentration (MIC), SA
[9] = pH 8.0, Bacillus subtilis KY4273, read-out: Minimum inhibition concentration (MIC), BS
[10] = ATCC6897, pH 8.0, Proteus vulgaris KY4277, read-out: Minimum inhibition concentration (MIC), PV
[11] = Bacillus subtilis, KY4273, pH 8, read-out: Minimum inhibition concentration (MIC), BS
[12] = ATCC26, pH 8, read-out: Minimum inhibition concentration (MIC), EC
[13] = Proteus vulgaris, ATCC6897, pH 8, read-out: Minimum inhibition concentration (MIC), PV

Row | Compound | MIC [1, 7] | MIC [2, 8] | MIC [3] | MIC [4] | MIC (Bacillus subtilis KY4273; [9]) | MIC [5, 10] | MIC [6] | MIC (Bacillus subtilis KY4273; [11]) | MIC [1, 12] | MIC [5, 13] | MIC ([2]; Staphylococcus aureus, pH 8, read-out: Minimum inhibition concentration (MIC), SA)
1 | CO[C@H]1[C@@H](O)[C@H](N)[C@@H](O[C@H]2O[C@H]([C@H](C)N)CC[C@H]2N)[C@H](O)[C@@H]1N(C)C(C)=O [Compound 5, 4-N-acetylfortimicin B] | 50 µg/mL (≈ 128 µM) | 12.5 µg/mL (≈ 32 µM) | > 200 µg/mL | 50 µg/mL (≈ 128 µM) | 50 µg/mL (≈ 128 µM) | 100 µg/mL (≈ 256 µM) | 50 µg/mL (≈ 128 µM) |  |  |  | 
2 | CCC(=O)N(C)[C@H]1[C@@H](O)[C@H](O[C@H]2O[C@H]([C@H](C)N)CC[C@H]2N)[C@@H](N)[C@H](O)[C@@H]1OC [Compound 6, 4-N-propionylfortimicin B] | 50 µg/mL (≈ 124 µM) | 12.5 µg/mL (≈ 30.9 µM) | > 200 µg/mL | 50 µg/mL (≈ 124 µM) | 50 µg/mL (≈ 124 µM) | 200 µg/mL (≈ 494 µM) | > 200 µg/mL |  |  |  | 
3 | CCCC(=O)N(C)[C@H]1[C@@H](O)[C@H](O[C@H]2O[C@H]([C@H](C)N)CC[C@H]2N)[C@@H](N)[C@H](O)[C@@H]1OC [Compound 7, 4-N-(n-butyryl)fortimicin B] | 6.25 µg/mL (≈ 14.9 µM) | 6.25 µg/mL (≈ 14.9 µM) | 25 µg/mL (≈ 59.7 µM) | 12.5 µg/mL (≈ 29.9 µM) |  | 100 µg/mL (≈ 239 µM) | 50 µg/mL (≈ 119 µM) | 12.5 µg/mL (≈ 29.9 µM) |  |  | 
4 | CCCCC(=O)N(C)[C@H]1[C@@H](O)[C@H](O[C@H]2O[C@H]([C@H](C)N)CC[C@H]2N)[C@@H](N)[C@H](O)[C@@H]1OC [Compound 8, 4-N-(n-valeryl)fortimicin B] | > 100 µg/mL | 100 µg/mL (≈ 231 µM) | > 200 µg/mL | > 200 µg/mL | 25 µg/mL (≈ 57.8 µM) | > 200 µg/mL | > 200 µg/mL |  |  |  | 
5 | CO[C@H]1[C@@H](O)[C@H](N)[C@@H](O[C@H]2O[C@H]([C@H](C)N)CC[C@H]2N)[C@H](O)[C@@H]1N(C)C(=O)CCN [Compound 9, 4-N-(β-alanyl)fortimicin B] | 0.63 µg/mL (≈ 1.5 µM) | 0.08 µg/mL (≈ 0.191 µM) | 0.32 µg/mL (≈ 0.763 µM) | 0.32 µg/mL (≈ 0.763 µM) | 0.08 µg/mL (≈ 0.191 µM) | 0.63 µg/mL (≈ 1.5 µM) | 1.25 µg/mL (≈ 2.98 µM) |  |  |  | 
6 | CO[C@H]1[C@@H](O)[C@H](N)[C@@H](O[C@H]2O[C@H]([C@H](C)N)CC[C@H]2N)[C@H](O)[C@@H]1N(C)C(=O)CCCN [Compound 10, 4-N-(γ-amino-n-butyryl)fortimicin B] | 1.25 µg/mL (≈ 2.88 µM) | 0.32 µg/mL (≈ 0.738 µM) | 2.5 µg/mL (≈ 5.77 µM) | 0.63 µg/mL (≈ 1.45 µM) | 0.16 µg/mL (≈ 0.369 µM) | 1.25 µg/mL (≈ 2.88 µM) | 2.5 µg/mL (≈ 5.77 µM) |  |  |  | 
7 | CO[C@H]1[C@@H](O)[C@H](N)[C@@H](O[C@H]2O[C@H]([C@H](C)N)CC[C@H]2N)[C@H](O)[C@@H]1N(C)C(=O)CCCCCN [Compound 12, 4-N-(ε-amino-n-caproyl)fortimicin B] | > 20 µg/mL | > 20 µg/mL | > 20 µg/mL | > 20 µg/mL | > 20 µg/mL | > 20 µg/mL | > 20 µg/mL |  |  |  | 
8 | CO[C@H]1[C@@H](O)[C@H](N)[C@@H](O[C@H]2O[C@H]([C@H](C)N)CC[C@H]2N)[C@H](O)[C@@H]1N(C)C(=O)CNC(=O)CN [Compound 13, 4-N-glycylglycylfortimicin B] |  | 0.32 µg/mL (≈ 0.692 µM) | 2.5 µg/mL (≈ 5.4 µM) | 1.25 µg/mL (≈ 2.7 µM) | 0.32 µg/mL (≈ 0.692 µM) | 2.5 µg/mL (≈ 5.4 µM) | 5 µg/mL (≈ 10.8 µM) |  | 1.25 µg/mL (≈ 2.7 µM) |  | 
9 | CCN(C)[C@H]1[C@@H](O)[C@H](O[C@H]2O[C@H]([C@H](C)N)CC[C@H]2N)[C@@H](N)[C@H](O)[C@@H]1OC [Compound 16, 4-N-ethylfortimicin B] |  | 1.56 µg/mL (≈ 4.14 µM) | 50 µg/mL (≈ 133 µM) | 3.13 µg/mL (≈ 8.31 µM) |  |  | 6.25 µg/mL (≈ 16.6 µM) | 3.13 µg/mL (≈ 8.31 µM) | 3.13 µg/mL (≈ 8.31 µM) | 6.25 µg/mL (≈ 16.6 µM) | 
10 | CCCN(C)[C@H]1[C@@H](O)[C@H](O[C@H]2O[C@H]([C@H](C)N)CC[C@H]2N)[C@@H](N)[C@H](O)[C@@H]1OC [Compound 17, 4-N-(n-propyl)fortimicin B] |  | 3.13 µg/mL (≈ 8.01 µM) | 100 µg/mL (≈ 256 µM) | 6.25 µg/mL (≈ 16 µM) |  |  | 12.5 µg/mL (≈ 32 µM) | 12.5 µg/mL (≈ 32 µM) | 6.25 µg/mL (≈ 16 µM) | 12.5 µg/mL (≈ 32 µM) | 
11 | CCCCN(C)[C@H]1[C@@H](O)[C@H](O[C@H]2O[C@H]([C@H](C)N)CC[C@H]2N)[C@@H](N)[C@H](O)[C@@H]1OC [Compound 18, 4-N-(n-butyl)fortimicin B] | 25 µg/mL (≈ 61.8 µM) |  | > 200 µg/mL | 12.5 µg/mL (≈ 30.9 µM) | 25 µg/mL (≈ 61.8 µM) | 100 µg/mL (≈ 247 µM) | 25 µg/mL (≈ 61.8 µM) |  |  |  | 12.5 µg/mL (≈ 30.9 µM)

From patent US4220755A, “Fortimicin B derivatives and process for production thereof” (Abbott Laboratories, priority 1976, dated 1980)
